Results on one compound are retold here after publication PMC2241828, “Amyloglucosidase enzymatic reactivity inside lipid vesicles” (Journal of Biological Engineering, 2007).

For orientation: Ki means the dissociation constant of the complex between target and ligand, obtained from inhibition or displacement.

In the assay the target is T1, amyloglucosidase (AMG), EC 3.2.1.3 (Aspergillus niger, UniProt P69328).
T1 construct: gene GLAA; commercial enzyme solution (Sigma A-3042), diluted with water
In words: initial rates plus fit of glucose-time curves (HPLC, starch-iodine) to Michaelis-Menten model with product inhibition. In kind it is biochemical. The following applies: free enzyme; soluble starch as substrate; pH 4.5, 55 °C; competitive product inhibition (assumed model); read-out: Ki (mg mL^-1) (converted).

T1 sequence (P69328 25-640): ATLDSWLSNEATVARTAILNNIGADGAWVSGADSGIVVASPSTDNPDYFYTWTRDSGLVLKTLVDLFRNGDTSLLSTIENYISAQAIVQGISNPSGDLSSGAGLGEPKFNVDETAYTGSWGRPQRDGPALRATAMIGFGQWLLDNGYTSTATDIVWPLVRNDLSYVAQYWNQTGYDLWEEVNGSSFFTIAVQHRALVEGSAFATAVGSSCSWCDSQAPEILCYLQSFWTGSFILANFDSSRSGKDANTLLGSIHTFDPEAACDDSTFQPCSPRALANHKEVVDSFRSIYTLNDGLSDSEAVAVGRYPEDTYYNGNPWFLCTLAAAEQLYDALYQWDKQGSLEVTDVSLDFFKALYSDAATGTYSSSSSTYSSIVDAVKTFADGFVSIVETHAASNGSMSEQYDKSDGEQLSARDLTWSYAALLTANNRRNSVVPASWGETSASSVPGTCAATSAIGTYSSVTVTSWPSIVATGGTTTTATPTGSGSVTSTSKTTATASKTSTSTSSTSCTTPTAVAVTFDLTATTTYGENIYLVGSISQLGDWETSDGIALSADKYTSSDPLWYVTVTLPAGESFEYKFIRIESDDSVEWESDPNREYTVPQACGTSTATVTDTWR

As for `OC[C@H]1OC(O)[C@H](O)[C@@H](O)[C@@H]1O` (stereo partly shown) [glucose], the inhibitory constant (Ki) was 555 µM.
